Results on 24 compounds are retold here after patent US9102669B2, “Substituted piperidinyl-pyridazinyl derivatives useful as SCD 1 inhibitors” (Janssen Pharmaceutica NV, priority 2011, dated 2015).

Test [1] deals with SCD1 (Rattus norvegicus (Rat), UniProt P07308). The experiment in a line: SCD1 enzymatic assay in rat liver microsomes (RLM). Type of test: biochemical. The conditions noted are these: rat liver microsomes; for inhibition at 1 µM / % Inh.@ 1 μM: 1 μM test compound; for inhibition at 1 µM: read-out: % Inh.@ 1 μM. The essentials:
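Microsomes from livers of Sprague Dawley rats after fast/fat-free re-feeding cycles (10 μg per reaction) were incubated 2 h at room temperature with 20 μM stearoyl-CoA plus ^3H-stearoyl-CoA (2 μCi/mL), ATP, CoA, NADH and glutathione in 0.1 M K-phosphate, with compound. Reactions were acid-stopped and charcoal-treated; radioactivity was counted and fitted to a sigmoidal dose-response curve.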
Background: Microsomes from liver hold many membrane-bound enzymes, among them those of drug oxidation.

Test [2] concerns the target T1, SCD1 (Homo sapiens (Human), UniProt O00767). In words: SCD1 14C-palmitate assay in A431 cells. Type of test: cell-based. The conditions noted are these: read-out: A431 cells 14C-PA IC50. The procedure:
Human epithelial carcinoma A431 cells were seeded at 400,000 cells per well in 48-well tissue culture plate and treated with 2 cycles of fasting in low glucose medium (DMEM, Cellgro#10-014-CV, 1 g/L glucose, 2% Charcoal Filtered FBS) for 24 hours; and re-feeding with high glucose medium for 24 hours (DMEM, Cellgro#10-013-CM, 4.5 g/L glucose, 10% Charcoal Filtered FBS and 0.05 mg/mL Lilly Humulin R, Cat.#, HI-210). Prior to running the assay, the cells were washed twice with high glucose medium (400 μL), followed by addition of 250 μL assay buffer (DMEM, 4.5 g/L glucose, 0.05 mg/mL Human Insulin, 0.1% Fatty Acid Free BSA) to each well. Then, 100 μL of assay buffer containing 20 μM Palmitic Acid, 0.05 μCi ^14C Palmitic Acid (Perkin Elmer, NEC075H) and test compound (at selected concentration) was added to each well. The cells were then Incubated at 37° C. and 5% CO2 tissue culture incubator for 4 hours, followed by extensive washes with pre-chilled PBS. The cell plates were then frozen at −20° C. overnight. After thawing out the plates, 100 μL of 1N KOH was added to each well and the plates were incubated at 37° C. for 30 mins. Cell lysates were transferred to 1 mL Eppendorf tubes and incubated at 95° C. for 1 hour, followed by addition of 10 μL formic acid and 220 μL acetonitrile. The tubes were then centrifuged at 12,000 rpm and the supernatant dried under N2 for 2-3 hours. Dried extract was re-suspended in 60 μL hexane and loaded onto TLC plates (pre-coated with 10% AgNO3 in acetonitrile). The TLC plates were placed into glass running chamber containing 200 mL running solution (100 mL running solution: 92.5 mL chloroform, 6 mL methanol, 750 μL acetic acid, 750 μL dH2O). After running, the TLC plates were air dried and scanned on Bioscan AR-2000 for quantification of ^14C-palmitioleate and ^14C-palmitate peaks. Area under the curve of the peaks were used to calculate product/substrate ratio, an index of SCD1 activity.

Test [3] deals with T1, SCD1. The experiment in a line: SCD1 13C-palmitic acid assay in A431 cells. In kind it is cell-based. To be noted: read-out: A431 cells 13C-PA IC50. The gist of the method: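 A431 cells with 0.05 mg/mL human insulin in 0.1% fatty-acid-free BSA assay medium; 4 h incubation at 37 °C before KOH saponification with D4-palmitate internal standard.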

Several values for one entry are separate records, joined by “and”; a condition that tells them apart may be missing. Equal values may be shown once.

SCD1 (Rattus norvegicus (Rat), UniProt P07308), sequence (P07308 whole entry): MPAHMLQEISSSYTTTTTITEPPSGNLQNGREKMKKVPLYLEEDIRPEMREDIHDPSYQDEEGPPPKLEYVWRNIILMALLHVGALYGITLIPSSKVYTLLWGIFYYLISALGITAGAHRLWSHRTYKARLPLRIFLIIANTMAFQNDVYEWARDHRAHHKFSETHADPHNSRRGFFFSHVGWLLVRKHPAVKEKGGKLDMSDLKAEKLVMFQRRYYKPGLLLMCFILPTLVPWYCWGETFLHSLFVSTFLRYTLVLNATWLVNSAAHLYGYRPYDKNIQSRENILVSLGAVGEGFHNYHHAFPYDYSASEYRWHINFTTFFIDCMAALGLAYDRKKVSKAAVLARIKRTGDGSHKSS
T1 sequence (O00767 whole entry): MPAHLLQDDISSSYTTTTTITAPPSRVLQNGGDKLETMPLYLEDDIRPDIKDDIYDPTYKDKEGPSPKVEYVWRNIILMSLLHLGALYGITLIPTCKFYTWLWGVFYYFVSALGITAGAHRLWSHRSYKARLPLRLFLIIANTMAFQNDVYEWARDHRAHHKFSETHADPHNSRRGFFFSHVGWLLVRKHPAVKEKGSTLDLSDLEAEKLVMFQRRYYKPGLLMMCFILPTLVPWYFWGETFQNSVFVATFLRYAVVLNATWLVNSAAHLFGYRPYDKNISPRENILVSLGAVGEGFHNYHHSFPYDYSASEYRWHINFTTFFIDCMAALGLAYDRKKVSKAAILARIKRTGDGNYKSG

Turning to `Cc1cn(-c2ccc(N3CCC(c4noc5cc(F)ccc45)CC3)nn2)cn1` [compound 89, 6-fluoro-3-(1-(6-(4-methyl-1H-imidazol-1-yl)pyridazin-3-yl)piperidin-4-yl)benzo[d]isoxazole], on SCD1 [1], the inhibition at 1 µM was 88% and the midpoint of inhibition, the IC50, lay at 257 nM. For the same compound, on SCD1 [2], the IC50 – broadly, the concentration needed to halve the response being measured – is 691 nM.

Regarding `Cc1ccn(-c2ccc(N3CCC(c4noc5ccc(F)cc45)CC3)nn2)n1` [compound 92, 5-fluoro-3-(1-(6-(3-methyl-1H-pyrazol-1-yl)pyridazin-3-yl)piperidin-4-yl)benzo[d]isoxazole], at SCD1 [1], the inhibition at 1 µM worked out at 79%. Also, the IC50 against SCD1 [1] worked out at 126 nM; at SCD1 [2], 63 nM.

With `Cc1cn(-c2ccc(N3CCC(n4ccc5ccccc54)CC3)nn2)cn1` [compound 88, 1-(1-(6-(4-methyl-1H-imidazol-1-yl)pyridazin-3-yl)piperidin-4-yl)-1H-indole], on SCD1 [1], the inhibition at 1 µM came to 84% and the half-maximal inhibitory concentration (IC50) turned out to be 86 nM. Also, the half-maximal inhibitory concentration (IC50) on SCD1 [2] worked out at 116 nM.

On to `Cc1cn(-c2ccc(N3CCC(N4CCc5ccc(F)cc54)CC3)nn2)cn1` [Compound #4, 6-fluoro-1-(1-(6-(4-methyl-1H-imidazol-1-yl)pyridazin-3-yl)piperidin-4-yl)indoline], for which, on SCD1 [1], the “% Inh.@ 1 μM” value worked out at 93% and the inhibition at 1 µM was determined as 95%. The IC50 on SCD1 [3] was found to be 9 nM. Besides, the IC50 at SCD1 [2] worked out at 68 nM.

`Fc1ccc2onc(C3CCN(c4ccc(-n5ccnc5)nn4)CC3)c2c1` [compound 84, 3-(1-(6-(1H-imidazol-1-yl)pyridazin-3-yl)piperidin-4-yl)-5-fluorobenzo[d]isoxazole]: on SCD1 [1], the inhibition at 1 µM came to 85% and the 50% inhibitory concentration (IC50) is 156 nM. Besides, the half-maximal inhibitory concentration (IC50) on SCD1 [2] was found to be 157 nM.

For the compound `Cc1nsc(-c2ccc(N3CCC(n4ccc5ccccc54)CC3)nn2)n1` [Compound #6, 5-(6-(4-(1H-indol-1-yl)piperidin-1-yl)pyridazin-3-yl)-3-methyl-1,2,4-thiadiazole], the inhibition at 1 µM at SCD1 [1] was determined as 79%. Further, the IC50 was 34 nM against SCD1 [1]; 62 nM and 102 nM at SCD1 [2].

On to `Cc1nsc(-c2ccc(N3CCC(c4noc5ccc(F)cc45)CC3)nn2)n1` [Compound #5, 5-fluoro-3-(1-(6-(3-methyl-1,2,4-thiadiazol-5-yl)pyridazin-3-yl)piperidin-4-yl)benzo[d]isoxazole], for which, on SCD1 [1], the inhibition at 1 µM was found to be 89% and half-maximal inhibition (IC50) required 68 nM. In addition, at SCD1 [2], the half-inhibitory concentration (IC50) was found to be 139 nM.

On to `Fc1ccc2onc(C3CCN(c4ccc(-c5cccnc5)nn4)CC3)c2c1` [compound 8, 5-fluoro-3-(1-(6-(pyridin-3-yl)pyridazin-3-yl)piperidin-4-yl)benzo[d]isoxazote], for which, at SCD1 [1], the inhibition at 1 µM turned out to be 86% and the IC50 was 165 nM. Further, the half-maximal inhibitory concentration (IC50) on SCD1 [2] stood at 577 nM.

Turning to `Cn1cc(-c2ccc(N3CCC(N4CCc5ccccc54)CC3)nn2)cn1` [Compound #10, 1-(1-(6-(1-methyl-1H-pyrazol-4-yl)pyridazin-3-yl)piperidin-4-yl)indoline], on SCD1 [1], the inhibition at 1 µM was 84% and the IC50 stood at 394 nM. Also, the IC50 at SCD1 [2] turned out to be 383 nM.

As for `Cn1cc(-c2ccc(N3CCC(n4ccc5ccccc54)CC3)nn2)cn1` [Compound #9, 1-(1-(6-(1-methyl-1H-pyrazol-4-yl)pyridazin-3-yl)piperidin-4-yl)-1H-indole], at SCD1 [1], the inhibition at 1 µM was 81% and 422 nM corresponded to half-maximal inhibition (IC50). For the same compound, the half-inhibitory concentration (IC50) on SCD1 [2] is 359 nM.

As for `Cn1cc(-c2ccc(N3CCC(c4noc5ccc(F)cc45)CC3)nn2)cn1` [Compound #3, 5-fluoro-3-(1-(6-(1-methyl-1 H-pyrazol-4-yl)pyridazin-3-yl)piperidin-4-yl)benzo[d]isoxazole], at SCD1 [1], the inhibition at 1 µM came to 87% and the IC50 was 126 nM. Also, on SCD1 [2], the IC50 is 377 nM.

Turning to `Fc1ccc2c(c1)N(C1CCN(c3ccc(-c4cnn(CCN5CCOCC5)c4)nn3)CC1)CC2` [compound 71, 4-(2-(4-(6-(4-(6-fluoroindolin-1-yl)piperidin-1-yl)pyridazin-3-yl)-1H-pyrazol-1-yl)ethyl)morpholine], at SCD1 [1], the inhibition at 1 µM was determined as 71% and inhibition was half-maximal at 275 nM (IC50). In addition, the half-inhibitory concentration (IC50) at SCD1 [3] was > 1000 nM and 160 nM.

Regarding `Cn1cc(-c2ccc(N3CCC(N4CCc5ccc(Cl)cc54)CC3)nn2)cn1` [Compound #59, 6-chloro-1-(1-(6-(1-methyl-1H-pyrazol-4-yl)pyridazin-3-yl)piperidin-4-yl)indoline], on SCD1 [1], the inhibition at 1 µM was 99% and the IC50 is 35 nM. Moreover, the concentration for half-maximal inhibition (IC50) at SCD1 [3] worked out at 28 nM.

On to `OCc1ccc(-c2ccc(N3CCC(c4noc5ccc(F)cc45)CC3)nn2)cn1` [compound 35, (5-(6-(4-(5-fluorobenzo[d]isoxazol-3-yl)piperidin-1-yl)pyridazin-3-yl)pyridin-2-yl)methanol], for which, on SCD1 [1], the inhibition at 1 µM worked out at 99% and half-maximal inhibition (IC50) required 8 nM. In addition, the concentration for half-maximal inhibition (IC50) at SCD1 [3] came out at 2 nM.

For the compound `Cc1csc(-c2ccc(N3CCC(c4noc5ccc(F)cc45)CC3)nn2)n1` [compound 23, 5-fluoro-3-(1-(6-(4-methylthiazol-2-yl)pyridazin-3-yl)piperidin-4-yl)benzo[d]isoxazoie], on SCD1 [1], the inhibition at 1 µM worked out at 100% and the IC50 came out at 21 nM. In addition, the IC50 at SCD1 [3] stood at 3 nM.

As to `OCc1cn(-c2ccc(N3CCC(N4CCc5ccc(F)cc54)CC3)nn2)cn1` [Compound #15], at SCD1 [1], the inhibition at 1 µM came to 101% and 11 nM corresponded to half-maximal inhibition (IC50). Further, the IC50 on SCD1 [3] came out at 3 nM.

As to `CCOCc1cnn(-c2ccc(N3CCC(N4CCc5ccc(F)cc54)CC3)nn2)c1` [Compound #72, 1-(1-(6-(4-(ethoxymethyl)-1H-pyrazol-1-yl)pyridazin-3-yl)piperidin-4-yl)-6-fluoroindoline], on SCD1 [1], the inhibition at 1 µM came to 99% and the 50% inhibitory concentration (IC50) turned out to be 8 nM. The IC50 on SCD1 [3] came to 9 nM.

In the case of `Cc1nsc(-c2ccc(N3CCC(N4CCc5ccccc54)CC3)nn2)n1` [Compound #7, 5-(6-(4-(indolin-1-yl)piperidin-1-yl)pyridazin-3-yl)-3-methyl-1,2,4-thiadiazole], on SCD1 [1], the inhibition at 1 µM is 95%. Further, the half-inhibitory concentration (IC50) against SCD1 [1] came to 14 nM; at SCD1 [2] it was 24 nM.

Take `Cc1nsc(-c2ccc(N3CCC(N4CCc5ccc(F)cc54)CC3)nn2)n1` [Compound #12, 5-(6-(4-(6-fluoroindolin-1-yl)piperidin-1-yl)pyridazin-3-yl)-3-methyl-1,2,4-thiadiazole]: on SCD1 [1], the “% Inh.@ 1 μM” value is recorded as 97%, the inhibition at 1 µM turned out to be 95% and it took 11 nM to reach half-maximal inhibition (IC50). Also, the IC50 at SCD1 [2] came out at 362 nM.

As to `Fc1ccc2c(c1)N(C1CCN(c3ccc(-c4ccc(C(F)(F)F)nc4)nn3)CC1)CC2` [Compound #76, 6-fluoro-1-(1-(6-(6-(trifluoromethyl)pyridin-3-yl)pyridazin-3-yl)piperidin-4-yl)indoline], at SCD1 [1], the inhibition at 1 µM came out at 97% and the IC50 came to 16 nM. Further, the IC50 on SCD1 [3] was 14 nM.

For the compound `Cn1cc(-c2ccc(N3CCC(n4ncc5ccc(Cl)cc54)CC3)nn2)cn1` [compound 74, 6-chloro-1-(1-(6-(1-methyl-1H-pyrazol-4-yl)pyridazin-3-yl)piperidin-4-yl)-1H-indazole], on SCD1 [1], the inhibition at 1 µM was 96% and the half-maximal inhibitory concentration (IC50) turned out to be 16 nM. In addition, the IC50 on SCD1 [3] was 22 nM.

As for `Cc1cn(-c2ccc(N3CCC(N4CCc5ccccc54)CC3)nn2)cn1` [Compound #1, 1-(1-(6-(4-methyl-1H-imidazol-1-yl)pyridazin-3-yl)piperidin-4-yl)indoline], on SCD1 [1], the inhibition at 1 µM was 86% and the IC50 turned out to be 76 nM. At SCD1 [2], the IC50 amounted to 257 nM.

`Cc1cn(-c2ccc(N3CCC(c4noc5ccc(F)cc45)CC3)nn2)cn1` [compound 85, 5-fluoro-3-(1-(6-(4-methyl-1H-imidazol-1-yl)pyridazin-3-yl)piperidin-4-yl)benzo[d]isoxazole]: on SCD1 [1], the inhibition at 1 µM was 97% and half-maximal inhibition (IC50) was put at 65 nM. Also, the IC50 at SCD1 [2] was 148 nM.

With `Cn1cc(-c2ccc(N3CCC(n4nc(Cl)c5ccccc54)CC3)nn2)cn1` [compound 83, 3-chloro-1-(1-(6-(1-methyl-1H-pyrazol-4-yl)pyridazin-3-yl)piperidin-4-yl)-1H-indazole], the inhibition at 1 µM on SCD1 [1] was 102%. For the same compound, the IC50 on SCD1 [1] is 6 nM; at SCD1 [3] it was 11 nM.
